Patent US20250129078A1, “ERBB2 INHIBITORS” (Cogent Biosciences, Inc., priority 2023, published 2025)

Molecular target: EGFR WT (Homo sapiens (Human), UniProt P00533)
Assay: ErbB enzyme assay (CisBio HTRF-KinEASE-TK), EGFR WT
Format: biochemical
Conditions: ATP at Km (25 μM), 1 h incubation
Procedure, shortened: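 HTRF KinEASE-TK kinase reactions ran 1 h at ambient temperature with three-fold serial compound dilutions, then were quenched with Sa-XL665 and TK-Ab-Cryptate. After 1 h more, 655/620 nm time-resolved fluorescence gave percent of control; a 4-parameter logistic fit defined IC50 at 50 POC.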

Sequence of EGFR WT (P00533 25-1210): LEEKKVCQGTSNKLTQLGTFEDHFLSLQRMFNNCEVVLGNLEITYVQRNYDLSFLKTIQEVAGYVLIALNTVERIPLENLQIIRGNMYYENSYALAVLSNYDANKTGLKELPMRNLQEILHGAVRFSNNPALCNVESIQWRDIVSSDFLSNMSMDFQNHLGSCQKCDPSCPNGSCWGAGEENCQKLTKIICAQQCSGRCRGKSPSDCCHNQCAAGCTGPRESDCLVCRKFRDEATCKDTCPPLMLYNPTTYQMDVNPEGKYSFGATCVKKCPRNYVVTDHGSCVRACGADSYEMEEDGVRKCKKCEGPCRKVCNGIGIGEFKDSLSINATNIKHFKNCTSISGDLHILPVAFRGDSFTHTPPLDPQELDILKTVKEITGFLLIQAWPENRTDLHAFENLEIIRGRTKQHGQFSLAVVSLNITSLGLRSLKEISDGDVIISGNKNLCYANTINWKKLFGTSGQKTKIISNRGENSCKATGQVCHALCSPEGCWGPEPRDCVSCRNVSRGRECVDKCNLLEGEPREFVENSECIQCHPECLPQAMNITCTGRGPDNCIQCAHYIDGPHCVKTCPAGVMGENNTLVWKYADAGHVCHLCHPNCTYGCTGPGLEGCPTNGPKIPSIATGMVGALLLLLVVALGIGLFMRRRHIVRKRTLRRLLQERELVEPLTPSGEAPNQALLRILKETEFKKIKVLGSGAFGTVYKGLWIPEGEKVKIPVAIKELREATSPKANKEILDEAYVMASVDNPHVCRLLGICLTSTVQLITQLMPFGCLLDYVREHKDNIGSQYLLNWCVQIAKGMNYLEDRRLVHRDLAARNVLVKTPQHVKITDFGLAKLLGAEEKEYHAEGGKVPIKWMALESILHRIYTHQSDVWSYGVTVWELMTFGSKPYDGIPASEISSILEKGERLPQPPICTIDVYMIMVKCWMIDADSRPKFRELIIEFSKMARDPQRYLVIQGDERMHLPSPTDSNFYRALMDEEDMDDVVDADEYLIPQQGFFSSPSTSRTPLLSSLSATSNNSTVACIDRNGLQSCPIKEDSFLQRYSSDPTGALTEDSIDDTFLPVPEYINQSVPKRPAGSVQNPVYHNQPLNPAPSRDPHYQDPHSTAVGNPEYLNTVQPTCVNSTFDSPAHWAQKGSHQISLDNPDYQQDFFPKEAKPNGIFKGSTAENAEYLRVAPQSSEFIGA

SMILES | IC50 [nM]
C=CC(=O)N1C[C@@H](N(C)c2ccc3ncnc(Nc4ccc(Oc5ccc6c(c5)nnn6C)c(C)c4F)c3n2)CC[C@@H]1C [Compound 267, 1-((2S,5S)-5-((4-((2-fluoro-3-methyl-4-((1-methyl-1H-benzo[d][1,2,3]triazol-5-yl)oxy)phenyl)amino)pyrido[3,2-d]pyrimidin-6-yl)(methyl)amino)-2-methylpiperidin-1-yl)prop-2-en-1-one] | ≥ 1000
C=CC(=O)N[C@@H]1CCCN(c2ncc3ncnc(Nc4ccc(Oc5ccc6c(c5)nnn6C)c(C)c4F)c3n2)CC1 [Compound 172, (R)-N-(1-(8-((2-fluoro-3-methyl-4-((1-methyl-1H-benzo[d][1,2,3]triazol-5-yl)oxy)phenyl)amino)pyrimido[5,4-d]pyrimidin-2-yl)azepan-4-yl)acrylamide] | ≥ 1000
C=CC(=O)N1CCN(c2ccc3ncnc(Nc4ccc(Oc5cc(F)c6c(c5)nnn6C)c(C)c4F)c3n2)C[C@@H]1C1CC1 [Compound 292, (S)-1-(2-cyclopropyl-4-(4-((2-fluoro-4-((7-fluoro-1-methyl-1H-benzo[d][1,2,3]triazol-5-yl)oxy)-3-methylphenyl)amino)pyrido[3,2-d]pyrimidin-6-yl)piperazin-1-yl)prop-2-en-1-one] | 100 to 500
C=CC(=O)N1CCN(c2ncc3ncnc(Nc4ccc(Oc5cc(F)c6c(c5)ncn6C)c(C)c4)c3n2)CC[C@@H]1C [Compound 179, (S)-1-(4-(8-((4-((7-fluoro-1-methyl-1H-benzo[d]imidazol-5-yl)oxy)-3-methylphenyl)amino)pyrimido[5,4-d]pyrimidin-2-y1)-7-methyl-1,4-diazepan-1-yl)prop-2-en-1-one] | 100 to 500
C=CC(=O)N1CCN(c2ncc3ncnc(Nc4ccc(Oc5cc6nnn(C)c6cc5F)c(C)c4)c3n2)CC1 [Compound 190, 1-(4-(8-((4-((6-fluoro-1-methyl-1H-benzo[d][1,2,3]triazol-5-yl)oxy)-3-methylphenyl)amino)pyrimido[5,4-d]pyrimidin-2-yl)piperazin-1-yl)prop-2-en-1-one] | 100 to 500
C=CC(=O)N1CCN(c2ccc3ncnc(Nc4cc(C)c(Oc5cc(F)c6c(c5)ncn6C)cc4OC)c3n2)C[C@H]1C [Compound 310, (R)-1-(4-(4-((4-((7-fluoro-1-methyl-1H-benzo[d]imidazol-5-yl)oxy)-2-methoxy-5-methylphenyl)amino)pyrido[3,2-d]pyrimidin-6-yl)-2-methylpiperazin-1-yl)prop-2-en-1-one] | 100 to 500
C=CC(=O)N1[C@H](C)CN(c2ccc3ncnc(Nc4ccc(Oc5ccc6c(c5)nnn6C)c(C)c4)c3n2)C[C@H]1C [Compound 248, 1-((2R,6R)-2,6-dimethyl-4-(4-((3-methyl-4-((1-methyl-1H-benzo[d][1,2,3]triazol-5-yl)oxy)phenyl)amino)pyrido[3,2-d]pyrimidin-6-yl)piperazin-1-yl)prop-2-en-1-one] | ≥ 1000
C=CC(=O)N[C@H]1[C@@H]2C[C@H]1CN(c1ncc3ncnc(Nc4ccc(Oc5ccc6c(c5)nnn6C)c(C)c4)c3n1)C2 [Compound 207, N-((1R,5S,6r)-3-(8-((3-methyl-4-((1-methyl-1H-benzo[d][1,2,3]triazol-5-yl)oxy)phenyl)amino)pyrimido[5,4-d]pyrimidin-2-yl)-3-azabicyclo[3.1.1]heptan-6-yl)acrylamide] | 100 to 500
C=CC(=O)N1CCC(Oc2ncc3ncnc(Nc4ccc(Oc5ccn6ncnc6c5)c(C)c4)c3n2)CC1 [Compound 376, 1-(4-((8-((4-([1,2,4]triazolo[1,5-a]pyridin-7-yloxy)-3-methylphenyl)amino)pyrimido[5,4-d]pyrimidin-2-yl)oxy)piperidin-1-yl)prop-2-en-1-one] | 100 to 500
C=C1CCN(C2CCN(c3ccc4ncnc(Nc5ccc(Oc6ccc7c(c6)nnn7C)c(C)c5F)c4n3)CC2)C1=O [Compound 241, 1-(1-(4-((2-fluoro-3-methyl-4-((1-methyl-1H-benzo[d][1,2,3]triazol-5-yl)oxy)phenyl)amino)pyrido[3,2-d]pyrimidin-6-yl)piperidin-4-yl)-3-methylenepyrrolidin-2-one] | ≥ 1000
C=CC(=O)N1CCN(c2ncc3ncnc(Nc4ccc(Oc5ccc6c(c5)nnn6C)c(F)c4F)c3n2)CC1 [Compound 10, 1-(4-(8-((2,3-difluoro-4-((1-methyl-1H-benzo[d][1,2,3]triazol-5-yl)oxy)phenyl)amino)pyrimido[5,4-d]pyrimidin-2-yl)piperazin-1-yl)prop-2-en-1-one] | 100 to 500
C=CC(=O)N1C(C)(C)CC(c2ccc3ncnc(Nc4ccc(Oc5ccc6c(c5)nnn6C)c(C)c4)c3n2)CC1(C)C [Compound 399, 1-(2,2,6,6-tetramethyl-4-(4-((3-methyl-4-((1-methyl-1H-benzo[d][1,2,3]triazol-5-yl)oxy)phenyl)amino)pyrido[3,2-d]pyrimidin-6-yl)piperidin-1-yl)prop-2-en-1-one] | ≥ 1000

The remaining lines, values ahead:

IC50 [nM] | SMILES
< 50 | C=CC(=O)N1CCN(c2ncc3ncnc(Nc4cc(F)c(Oc5ccc6c(c5)nnn6C)c(Cl)c4)c3n2)C[C@H]1C [Compound 194, (R)-1-(4-(8-((3-chloro-5-fluoro-4-((1-methyl-1H-benzo[d][1,2,3]triazol-5-yl)oxy)phenyl)amino)pyrimido[5,4-d]pyrimidin-2-y1)-2-methylpiperazin-1-yl)prop-2-en-1-one]
50 to 100 | C=CC(=O)N1CCN(c2ncc3ncnc(Nc4ccc(Oc5ccc6c(c5)ncn6C(F)F)c(C)c4)c3n2)CC1 [Compound 30, 1-(4-(8-((4-((1-(difluoromethyl)-1H-benzo[d]imidazol-5-yl)oxy)-3-methylphenyl)amino)pyrimido[5,4-d]pyrimidin-2-y1)piperazin-1-yl)prop-2-en-1-one]
< 50 | [2H]C1([2H])N(C(=O)C=C)C([2H])([2H])C([2H])([2H])N(c2ncc3ncnc(Nc4ccc(Oc5ccc6c(c5)nnn6C)c(C)c4)c3n2)C1([2H])[2H] [Compound 36, 1-(4-(8-((3-methyl-4-((1-methyl-1H-benzo[d][1,2,3]triazol-5-yl)oxy)phenyl)amino)pyrimido[5,4-d]pyrimidin-2-yl)piperazin-1-yl-2,2,3,3,5,5,6,6-d8)prop-2-en-1-one]
100 to 500 | C=CC(=O)N1CCN(c2ccc3ncnc(Nc4cc(C)c(Oc5ccc6c(c5)nnn6C)cc4OC(F)F)c3n2)C[C@H]1C [Compound 302, (R)-1-(4-(4-((2-(difluoromethoxy)-5-methyl-4-((1-methyl-1H-benzo[d][1,2,3]triazol-5-yl)oxy)phenyl)amino)pyrido[3,2-d]pyrimidin-6-yl)-2-methylpiperazin-1-yl)prop-2-en-1-one]
100 to 500 | C=CC(=O)N1CCN(c2ncc3ncnc(Nc4ccc(Oc5ccc6c(c5)ncn6C(F)F)c(C)c4)c3n2)C[C@H]1C [Compound 162, (R)-1-(4-(8-((4-((1-(difluoromethyl)-1H-benzo[d]imidazol-5-yl)oxy)-3-methylphenyl)amino)pyrimido[5,4-d]pyrimidin-2-y1)-2-methylpiperazin-1-yl)prop-2-en-1-one]
50 to 100 | C=CC(=O)N1CCN(c2ccc3ncnc(Nc4ccc(Oc5ccc6c(c5)ncn6C(F)F)c(C)c4)c3n2)C[C@H]1C [Compound 340, (R)-1-(4-(4-((4-((1-(difluoromethyl)-1H-benzo[d]imidazol-5-yl)oxy)-3-methylphenyl)amino)pyrido[3,2-d]pyrimidin-6-yl)-2-methylpiperazin-1-yl)prop-2-en-1-one]
50 to 100 | C=CC(=O)N(C)C1C2CN(c3ncc4ncnc(Nc5ccc(Oc6cc(F)c7c(c6)nnn7C)c(C)c5F)c4n3)CC21 (stereo not shown) [Compound 68, N-(3-(8-((2-fluoro-4-((7-fluoro-1-methyl-1H-benzo[d][1,2,3]triazol-5-yl)oxy)-3-methylphenyl)amino)pyrimido[5,4-d]pyrimidin-2-yl)-3-azabicyclo[3.1.0]hexan-6-yl)-N-methylacrylamide]
< 50 | C=CC(=O)N1CCN(c2ccc3ncnc(Nc4ccc(Oc5ccc6c(c5)nnn6C)c(C)c4)c3n2)C2CC21 (stereo not shown) [Compound 75, 1-(5-(4-((3-methyl-4-((1-methyl-1H-benzo[d][1,2,3]triazol-5-yl)oxy)phenyl)amino)pyrido[3,2-d]pyrimidin-6-yl)-2,5-diazabicyclo[4.1.0]heptan-2-yl)prop-2-en-1-one]
< 50 | C=CC(=O)N[C@]1(C)CCCN(c2ncc3ncnc(Nc4ccc(Oc5ccc6c(c5)nnn6C)c(C)c4)c3n2)C1 [Compound 200, (R)-N-(3-methyl-1-(8-((3-methyl-4-((1-methyl-1H-benzo[d][1,2,3]triazol-5-yl)oxy)phenyl)amino)pyrimido[5,4-d]pyrimidin-2-yl)piperidin-3-yl)acrylamide]
< 50 | C=CC(=O)N1CCN(c2nc3c(Nc4ccc(Oc5ccc6c(c5)nnn6C)c(C)c4)ncnc3cc2OC)CC1 [Compound 98, 1-(4-(7-methoxy-4-((3-methyl-4-((1-methyl-1H-benzo[d][1,2,3]triazol-5-yl)oxy)phenyl)amino)pyrido[3,2-d]pyrimidin-6-yl)piperazin-1-yl)prop-2-en-1-one]
50 to 100 | C=C(F)C(=O)N1CC=C(c2ccc3ncnc(Nc4ccc(Oc5ccc6c(c5)nnn6C)c(C)c4)c3n2)C1 [Compound 403, 2-fluoro-1-(3-(4-((3-methyl-4-((1-methyl-1H-benzo[d][1,2,3]triazol-5-yl)oxy)phenyl)amino)pyrido[3,2-d]pyrimidin-6-yl)-2,5-dihydro-1H-pyrrol-1-yl)prop-2-en-1-one]
50 to 100 | COC[C@@H]1CN(c2ccc3ncnc(Nc4ccc(Oc5ccc6c(c5)nnn6C)c(C)c4)c3n2)CCN1C(=O)/C=C/CF [Compound 363, (S,E)-4-fluoro-1-(2-(methoxymethyl)-4-(4-((3-methyl-4-((1-methyl-1H-benzo[d][1,2,3]triazol-5-yl)oxy)phenyl)amino)pyrido[3,2-d]pyrimidin-6-yl)piperazin-1-yl)but-2-en-1-one]
< 50 | C=CC(=O)N1CCN(c2ncc3ncnc(Nc4ccc(Oc5ccc6c(c5)nnn6C)c(Cl)c4F)c3n2)CC1 [Compound 220, 1-(4-(8-((3-chloro-2-fluoro-4-((1-methyl-1H-benzo[d][1,2,3]triazol-5-yl)oxy)phenyl)amino)pyrimido[5,4-d]pyrimidin-2-yl)piperazin-1-yl)prop-2-en-1-one]
